Test results taken from US20200319163A1, “METHODS AND COMPOSITIONS OVERCOMING CANCER CELL IMMUNE RESISTANCE” (Georgetown University, priority 2019, published 2020).

Test system: ADCCR1 cells
Assay: ADCC assay (specific lysis by NK92-CD16V effector cells) on ADCC-resistant cells
Assay type: cell-based, human
Conditions: ADCCR1 pretreated with inhibitor 0.01 to 10 μmol/L for 2 hours; ADCC assay at 4 hours; FIG. 4B, 4C
Excerpt: Inhibitors of histone acetyltransferase C646 (cat. no. S7152), DNA methyltransferase azacytidine (cat. no. S1782), histone demethylase GSK J4 HCL (cat. no. S7070), and HDAC panobinostat (cat. no. S1030) were purchased from Selleck Chemicals. Inhibitors were solubilized in DMSO at […]. Vehicle treatment (DMSO) was used at the highest equivalent v/v used in inhibitor treatments.
ADCC assays were preformed using A431/ADCCS1/ADCCR1 as target cells and NK92-CD16V cells as the effector cells. Target cells are plated at 10,000 cells/well overnight (A431 cells double overnight).

`CC1=NN(c2ccc(C(=O)O)cc2)C(=O)/C1=C\c1ccc(-c2cc(C)c(C)cc2[N+](=O)[O-])o1` [C646] was tested, and the “ADCC resistance / resensitization to ADCC (specific lysis)” value was “partially reversed”.
